Here are results for one substance from patent publication US20080069785A1, “PEST-CONTROL COMPOSITIONS, AND METHODS AND PRODUCTS UTILIZING SAME” (priority 2004, published 2008).

This assay relates to Horn fly (Haematobia irritans). Briefly: Treatment of livestock, control of flying insects (Example 23). It counts as in vivo. How it is done:
The objective of this test was to evaluate the efficacy of the formulations in repelling flying insects from landing on and disturbing livestock. Ten animals were utilized for each treatment or control, with 120 cc/animal applied for each treatment. The experiment was performed by diluting the formulation to the appropriate concentration and spraying the formulation onto the livestock directly. One group had Ivermectin applied as a standard for comparison. Each group of animals was separated in the pasture by fencing. Counts were made immediately before treatments and then 1 day after treatment and 1 week after treatment. Every 2 weeks there was a retreatment and counts were repeated just prior to retreatment with same count cycle recurring through 2 week periods.
The flying insect evaluated was the Horn fly (Haematobia irritans).

Ivermectin: the “Average number of flies landing on the animals” value (“Average number of flies landing” below) (2-Aug, one day after treatment on August 1 (including Ivermectin group)) was found to be 4.8; the “Average number of flies landing” value (6-Jul, one day after the initial treatment, 120 cc/animal, ten animals) is recorded as 2.4; the “Average number of flies landing” value (8-Aug, one week after treatment on August 1) is 62.0; the “Average number of flies landing” value (11-Jul, one week after initial treatment) amounted to 2.7; the “Average number of flies landing” value (18-Jul, two weeks after initial treatment) was 41.4; the “Average number of flies landing” value (20-Jul, one day after retreatment on July 19 (except ivermectin)) came to 54.5. The “Average number of flies landing” value is reported as 82.7 (25-Jul, one week after retreatment on July 19 (except ivermectin)) and 185.9 (31-Jul, two weeks after retreatment on July 19 (except ivermectin)).
